This note sets out measurements from patent US11780841B2, “3,6-methano-1H-pyrrolo[3,2-b]pyridine and 3,6-methano-1H-pyrrolo[3,2-c]pyridine compounds and medicaments using same” (priority 2018, dated 2023).

Molecules are shown by their SMILES.

The experiment relates to recombinant rabies virus 1088 strain expressing Gaussia Luciferase (GLuc) (1088/GLuc). It counts as cell-based. The settings on record: read-out: Anti-rabies activity.

As for `O=C(NCc1ccc(O)cc1)[C@@]12C[C@@H]3CN(Cc4ccc(F)cc4)[C@@H]([C@@H]3CN1)[C@H]2Cc1ccccc1` [IF-481], the IC50 was in the range of 10 to 30 µM.
For the molecule `CC(C)C[C@@H]1[C@@H]2[C@@H]3CN[C@@]1(C(=O)NCc1ccc(O)cc1)C[C@@H]3CN2Cc1ccc(F)cc1` [IF-482], the IC50 was in the range of 10 to 30 µM.
On to `O=C(NCCO)[C@@]12C[C@@H]3CN(CC4CCCCC4)[C@@H]([C@@H]3CN1)[C@H]2Cc1ccccc1` [IF-486], for which the IC50 lay in the range of 10 to 30 µM.
The same measure for `CC(C)CC[C@@H]1[C@@H]2[C@@H]3CN[C@@]1(C(=O)NCCO)C[C@@H]3CN2Cc1ccc(F)cc1` [IF-490]: 10 to 30 µM.
The same measure for `CC(C)CC[C@@H]1[C@@H]2[C@@H]3CN[C@@]1(C(=O)NCc1ccc(O)cc1)C[C@@H]3CN2Cc1ccccc1` [IF-493]: below 5 µM.
In the case of `O=C(NCc1ccc(O)cc1)[C@@]12C[C@@H]3CN(Cc4ccccc4)[C@@H]([C@@H]3CN1)[C@H]2Cc1ccccc1` [IF-494] it was 10 to 30 µM.
For the molecule `CC(C)CN1C[C@H]2C[C@]3(C(=O)NCc4ccc(O)cc4)NC[C@H]2[C@H]1[C@H]3Cc1cccc2ccccc12` [IF-500], the IC50 fell in the range of 10 to 30 µM.
In the case of `CC(C)CC[C@@H]1[C@@H]2[C@@H]3CN[C@@]1(C(=O)NC(C)C)C[C@@H]3CN2Cc1ccc(O)cc1` [IF-503] it was below 5 µM; in that of `CC(C)NC(=O)[C@@]12C[C@@H]3CN(Cc4ccc(O)cc4)[C@@H]([C@@H]3CN1)[C@H]2Cc1cccc2ccccc12` [IF-504], 10 to 30 µM; in that of `NC(=O)CCNC(=O)[C@@]12C[C@@H]3CN(CC4CCCCC4)[C@@H]([C@@H]3CN1)[C@H]2Cc1cccc2ccccc12` [IF-536], below 5 µM.
Take `NC(=O)CCNC(=O)[C@@]12C[C@@H]3CN(Cc4ccc(F)cc4)[C@@H]([C@@H]3CN1)[C@H]2Cc1cccc2ccccc12` [IF-539]: the IC50 is below 5 µM.
The same measure for `O=C(NCCc1ccccc1)[C@@]12C[C@@H]3CN(Cc4ccc(O)cc4)[C@@H]([C@@H]3CN1)[C@H]2Cc1cccc2ccccc12` [IF-580]: 10 to 30 µM; for `CC(C)NC(=O)[C@@]12C[C@@H]3CN(Cc4cccc5ccccc45)[C@@H]([C@@H]3CN1)[C@H]2Cc1cccc2ccccc12` [IF-596]: 10 to 30 µM; for `O=C(NCCO)[C@@]12C[C@@H]3CN(Cc4cccc5ccccc45)[C@@H]([C@@H]3CN1)[C@H]2Cc1ccccc1` [IF-603]: 10 to 30 µM.
In the case of `CC(C)C[C@@H]1[C@@H]2[C@@H]3CN[C@@]1(C(=O)NCCO)C[C@@H]3CN2Cc1cccc2ccccc12` [IF-604], the IC50 was in the range of 10 to 30 µM.
In the case of `CC(C)C[C@@H]1[C@@H]2[C@@H]3CN[C@@]1(C(=O)NCCO)C[C@@H]3CN2CC1CCCCC1` [IF-606] it was 10 to 30 µM; in that of `O=C(NCCc1ccccc1)[C@@]12C[C@@H]3CN(CCO)[C@@H]([C@@H]3CN1)[C@H]2Cc1cccc2ccccc12` [IF-610], 10 to 30 µM.
Consider `CC(C)CCN1C[C@H]2C[C@]3(C(=O)NCCO)NC[C@H]2[C@H]1[C@H]3Cc1cccc2ccccc12` [IF-611], for which the IC50 lay within 10 to 30 µM.
In the case of `O=C(NCCO)[C@@]12C[C@@H]3CN(CCc4ccccc4)[C@@H]([C@@H]3CN1)[C@H]2Cc1cccc2ccccc12` [IF-612] it was 10 to 30 µM; in that of `CC(C)CC[C@@H]1[C@@H]2[C@@H]3CN[C@@]1(C(=O)NCCO)C[C@@H]3CN2Cc1cccc2ccccc12` [IF-613], 10 to 30 µM.
Consider `O=C(NCCO)[C@@]12C[C@@H]3CN(Cc4cccc5ccccc45)[C@@H]([C@@H]3CN1)[C@H]2Cc1cccc2ccccc12` [IF-614], for which the IC50 lay within 10 to 30 µM.
The same measure for `O=C(NCCO)[C@@]12C[C@@H]3CN(CC4CCCCC4)[C@@H]([C@@H]3CN1)[C@H]2Cc1cccc2ccccc12` [IF-619]: 10 to 30 µM; for `O=C(NCCO)[C@@]12C[C@@H]3CN(Cc4ccc(F)cc4)[C@@H]([C@@H]3CN1)[C@H]2Cc1cccc2ccccc12` [IF-620]: below 5 µM.
The same measure for `O=C(NCCO)[C@@]12C[C@@H]3CN(Cc4ccccc4)[C@@H]([C@@H]3CN1)[C@H]2Cc1cccc2ccccc12` [IF-624]: 10 to 30 µM.
